In patent US20250003952A1, “SENOLYTIC DRUG SCREENING METHOD AND SENOLYTIC DRUG” (KYOTO UNIVERSITY, priority 2021, published 2025):
Peptide text beside a SMILES is read from it. * marks the point of attachment. Cbz = O=C(OCc1ccccc1)*

Assays:
[1] = system: IMR90 cells; assay: Secondary screening: senolytic activity, young vs senescent IMR90 cells, crystal violet; format: cell-based, human; conditions: young vs Ras-induced senescent IMR90 cells; 5 μM and 10 μM; 72 hours; criterion of positivity 1.14 or more
Method: In the secondary screening, the agent sensitivity of young IMR90 cells and senescent IMR90 cells was compared. The senescent IMR90 cells were prepared by inducing an oncogenic Ras mutation. The young cells and the senescent cells were each seeded in a 96-well plate, and two days later, the candidate drugs obtained from the primary screening were treated at two concentrations of 5 μM and 10 μM. Surviving cells after 72 hours were fixed with formalin and stained with crystal violet. After that, crystal violet in each well was extracted with 2% Triton X100 and quantified (FIG. 31-1 and FIG. 31-2). Young cells and senescent cells were each treated with a solvent (DMSO), and the resulting cells were used as a negative control, and the survival rate compared to the negative control was calculated by the following expression. Furthermore, the agent sensitivity of the young cells and the senescent cells was compared and evaluated as senolytic activity (young cell viability/senescent cell viability). The criterion of positivity was a senolytic activity of 1.14 or more.
Viability(%)=(Sample/negative subject)×100
Senolytic activity=young cell viability/senescent cell viability

[2] = system: HIF-2α; assay: HIF-2α protein (Western blot) and mRNA expression in IMR90 cells; format: cell-based, human
Source text: As a result, it was observed that the HIF-2α protein decreased in the nutlin 3b-treated group and the BI-D1870-treated group (upper diagram and lower diagram in FIG. 22).
An oncogenic Ras was introduced into young cells (within 1 month of continuous culture) of IMR90 cells to induce senescent cells (OIS). […] It is known that ubiquitination is induced by phosphorylation in the vicinity of a ubiquitination site (Hagai et al., 2012). The consensus sequences (K/R-K/R-x-x-S/T) for phosphorylation by Chk1 located at the N-terminus of HIF-2α were conserved, and these were named Motif1 (including Ser12 residues) and Motif2 (including Ser19 residues) (FIG. 40, SEQ ID NOs: 77 to 81).

[3] = system: PGAM-Chk1 kinase binding; conditions: cancer cells; Mikawa et al., 2020; cited from earlier work
[4] = system: IMR90 cells; assay: Senolysis / cell death of young and Ras-induced senescent IMR90 cells; format: cell-based, human
Source text: Ras gene with oncogenic mutation was introduced into young cells (within 1 month of continuous culture) of IMR90 cells by retroviral infection to acquire senescent cells. […] The control received only DMSO treatment. Representative images of cells observed under a microscope are shown (FIG. 11).
An oncogenic mutated Ras gene was introduced into young cells (within 1 month of continuous culture) of IMR90 cells by retroviral infection to acquire stress-induced senescent cells. The young cells and the senescent cells were both treated with different concentrations of the RSK kinase inhibitor BI-D1870 for 96 hours to evaluate cell death.
An oncogenic mutated Ras gene was introduced into young cells (within 1 month of continuous culture) of IMR90 cells by retroviral infection to acquire stress-induced senescent cells. The young cells and the senescent cells of IMR90 were both transfected with an RSK1 siRNA (two types of siRNA #1 (SEQ ID NO: 7) or #2 (SEQ ID NO: 8) having different target sequences) or a control to knock down RSK1. Representative images of cells observed under a microscope are shown (upper diagram in FIG. 20).
An oncogenic Ras was introduced into young cells (within 1 month of continuous culture) of IMR90 cells to induce senescent cells (OIS). The young cells and the senescent cells of IMR90 were transfected with two HIF-2α-specific siRNAs (SEQ ID NO: 9 and SEQ ID NO: 10) having different target sequences to knock down HIF-2α.
An oncogenic Ras was introduced into young cells (within 1 month of continuous culture) of IMR90 cells to induce senescent cells (OIS). The young cells and the senescent cells of IMR90 were transfected with a BIM-specific siRNA to knock down BIM.
An oncogenic Ras was introduced into young cells (within 1 month of continuous culture) of IMR90 cells to induce senescent cells (OIS). In the young cells and the senescent cells of IMR90, HIF-2α alone or both HIF-2α and BIM were knocked down by using their respective specific siRNAs (SEQ ID NO: 9, SEQ ID NO: 10), and cell death was confirmed (FIG. 28).
The latter information consists of 12,655 ChIP datasets from 903 antigens (transcription factors and epigenetic regulators).

[5] = system: human fibroblasts; assay: Lactate treatment of human fibroblasts; format: cell-based
Method: In order to explore the physiological significance of enhanced glycolysis in senescence, a conditioned medium consisting of senescent cells and non-senescent cells was prepared and added to human fibroblasts at the early passage. PGAM-Chk1 interaction was potentiated by culture supernatant from the senescent cells, but not potentiated in the control (FIG. 44). It was considered from this that a component potentiating the PGAM-Chk1 interaction was included in the culture supernatant from the senescent cells. Lactate was considered to be a candidate for such a component, and human fibroblasts were treated with lactate. […] GPR81 signaling is known to be partially involved in oncogenic modules including the Ras pathway (Ohno et al., 2018). In senescent cells or lactate-treated cells, it was observed that RSK1 kinase, which is downstream of the Ras pathway, was activated, accompanied by phosphorylation of Ser280 of Chk1 (Li et al., 2012), which is a known target of RSK (FIG. 49).

[6] = human fibroblasts treated with lactate

Row | Compound | senolytic activity (young cell viability/senescent cell viability) [1] | also measured
1 | COc1ccc(-c2ccc3c(N4CCOC[C@@H]4C)nc(N4CCOC[C@@H]4C)nc3n2)cc1CO [AZD8055] | have senolytic activity | –
2 | CC(C)CCN1c2nc(Nc3cc(F)c(O)c(F)c3)ncc2N(C)C(=O)C1C (stereo not drawn) [BI-D1870] | – | HIF-2α protein ([2]; young and senescent cells, different concentrations for 96 hours): decreased; PGAM-Chk1 kinase binding [3]: inhibited; glycolytic metabolism [3]: decreased; senolytic effect (cell death) ([4]; young and senescent IMR90 cells, 96 hours, 10 μM or 20 μM): remarkable senolytic effect
3 | Cc1ccc2nc(NCCN)c3ncc(C)n3c2c1 [BMS-345541] | have senolytic activity | –
4 | O=C(O)c1ccc2c(c1)nc(Nc1cccc(Cl)c1)c1ccncc12 [CX-4945] | have senolytic activity | –
5 | Cc1ccc(-n2nc(C(C)(C)C)cc2NC(=O)Nc2ccc(OCCN3CCOCC3)c3ccccc23)cc1 [Doramapimod (BIRB 796), Doramapimod] | have senolytic activity | –
6 | COc1ccc(-c2ccc3c(N4CCOCC4)nc(N4C[C@@H](C)O[C@@H](C)C4)nc3n2)cc1CO [KU-0063794] | have senolytic activity | –
7 | CC(C)C[C@@H](C=O)NC(=O)[C@H](CC(C)C)NC(=O)[C@H](CC(C)C)NC(=O)OCc1ccccc1 [MG132] (Cbz-Leu-Leu-Leu-aldehyde) | – | HIF-2α protein level under nutlin 3b treatment ([2]; senescent (OIS) IMR90 cells treated with nutlin 3b plus proteasome inhibitor): remarkably restored
8 | CC[C@H](C)C(=O)O[C@H]1CCC=C2C=C[C@H](C)[C@H](CC[C@@H]3C[C@@H](O)CC(=O)O3)[C@H]21 [Mevastatin] | have senolytic activity | –
9 | Cc1ccc(C(=O)Nc2cccc(C(F)(F)F)c2)cc1Nc1nc(-c2cccnc2)nc2c1cnn2C [NVP-BHG712] | have senolytic activity | –
10 | CCOc1cc2ncc(C#N)c(Nc3ccc(OCc4ccccn4)c(Cl)c3)c2cc1NC(=O)/C=C/CN(C)C [Neratinib] | have senolytic activity | –
11 | CN(C)C1CCN(C(=O)c2ccc(NC(=O)Nc3ccc(-c4nc(N5CCOCC5)nc(N5CCOCC5)n4)cc3)cc2)CC1 [PF-05212384] | have senolytic activity | –
12 | CC(C)[C@H](NC(=O)c1ccc2ccccc2n1)C(=O)N[C@@H](CC(=O)O)C(=O)COc1c(F)cccc1F [QVD-Oph] | – | viability of senescent cells under nutlin 3b treatment ([4]; senescent cells, nutlin 3b plus apoptosis inhibitor): restored
13 | CC(C)c1cc(-c2ccc(F)c3ccccc23)nc(N)n1 [RS-127445] | have senolytic activity | –
14 | C[S+]([O-])c1ccc(-c2nc(-c3ccncc3)c(-c3ccc(F)cc3)[nH]2)cc1 (stereo not drawn) [SB203580] | have senolytic activity | –
15 | CC(C)c1ccccc1Cc1cc(C(=O)Nc2ccc(S(=O)(=O)c3ccccc3C(C)(C)C)cc2)c(O)c(O)c1O [TW-37] | have senolytic activity | –
16 | CC(/C=C/C(=O)NO)=C\[C@@H](C)C(=O)c1ccc(N(C)C)cc1 [Trichostatin A (TSA), Trichostatin A] | have senolytic activity | –
17 | COC(=O)c1ccc2c(c1)NC(=O)/C2=C(\Nc1ccc(N(C)C(=O)CN2CCN(C)CC2)cc1)c1ccccc1 [Vargatef] | have senolytic activity | –
18 | CC(O)C(=O)O (stereo not drawn) [lactate] | – | SASP expression [5, 6]: stimulated; accumulation of HIF-2α [5, 6]: observed in a lactate concentration-dependent manner; enhancement of PGAM-Chk1 interaction [5, 6]: observed in a lactate concentration-dependent manner; p21 level vs control [5, 6]: did not provide a difference; phosphorylation of Ser12 of HIF-2α [5, 6]: observed in a lactate concentration-dependent manner; RSK1 kinase activation (accompanied by phosphorylation of Ser280 of Chk1) ([5]; lactate-treated cells): activated
19 | Verteporfin | have senolytic activity | –
